In patent US12319672B2, “Alpha-D-galactopyranoside derivatives” (Idorsia Pharmaceuticals Ltd, priority 2019, dated 2025):

Key:
human Gal-3 (hGal-3) = human Gal-3 (hGal-3) (Homo sapiens (Human), UniProt P17931); assay: Competitive binding assay: binding of biotinylated hGal-3 to microplate-adsorbed asialofetuin (ASF); details: Activity on hGal-3; mean values of several measurements
Procedure, shortened: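 Compounds in DMSO dilution series competed with 300-1000 ng/mL biotinylated hGal-3 for asialofetuin adsorbed on the plate (3 h, 4° C). Streptavidin-peroxidase at 80 ng/mL (1 h, 4° C) with ABTS gave a spectrophotometric read-out, and IC50 was reported as the mean of repeat runs.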

human Gal-1 (hGal-1) = assay: Competitive binding assay: binding of biotinylated hGal-1 to microplate-adsorbed asialofetuin (ASF); details: Activities on hGal-1; mean values of several measurements
human Gal-1 (hGal-1), sequence (P09382 2-135 limits assumed): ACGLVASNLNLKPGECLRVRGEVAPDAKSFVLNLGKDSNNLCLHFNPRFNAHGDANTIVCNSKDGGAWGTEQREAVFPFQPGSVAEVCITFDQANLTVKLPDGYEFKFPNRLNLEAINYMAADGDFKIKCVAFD
Procedure, shortened: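 Spectrophotometric readout (streptavidin-peroxidase, ABTS) of biotinylated galectin retained on ASF-coated wells. Biotinylated hGal-1 or hGal-3, 300-1000 ng/mL, co-incubated with test compound 3 h at 4° C, then washed. Mean IC50 from repeat runs.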

human Gal-3 (hGal-3), sequence (P17931 whole entry): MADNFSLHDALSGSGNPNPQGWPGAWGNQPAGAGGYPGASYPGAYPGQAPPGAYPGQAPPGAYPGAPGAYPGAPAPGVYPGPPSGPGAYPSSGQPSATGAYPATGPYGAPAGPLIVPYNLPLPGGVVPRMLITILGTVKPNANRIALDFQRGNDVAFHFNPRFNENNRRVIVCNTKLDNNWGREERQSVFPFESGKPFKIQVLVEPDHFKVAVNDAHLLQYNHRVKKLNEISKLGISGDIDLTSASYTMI

Compound | IC50 (human Gal-3 (hGal-3)) [nM] | IC50 (human Gal-1 (hGal-1)) [nM]
CC(C)(C)OC(=O)N1CCC(C2=NOC(C[C@H]3O[C@H](CO)[C@H](O)[C@H](n4cc(-c5cc(F)c(Cl)c(F)c5)nn4)[C@H]3O)C2)CC1 (stereo partly shown) [Ex 1.101] | 180 | 4100
CO[C@@H]1[C@@H](n2cc(-c3cccc(F)c3)nn2)[C@@H](O)[C@@H](CO)O[C@@H]1CC1CC(C2CCN(C(=O)OC(C)(C)C)CC2)=NO1 (stereo partly shown) [Ex 1.115] | 440 | 940
CCC(=O)O[C@@H]1[C@@H](n2cc(-c3cc(F)c(F)c(F)c3)nn2)[C@@H](O)[C@@H](CO)O[C@@H]1Cc1cc(C2CCNCC2)on1 [Example 2.16, (2R,3R,4S,5R,6R)-5-hydroxy-6-(hydroxymethyl)-2-((5-(piperidin-4-yl)isoxazol-3-yl)methyl)-4-(4-(3,4,5-trifluorophenyl)-1H-1,2,3-triazol-1-yl)tetrahydro-2H-pyran-3-yl propionate] | 160 | 11600
CC(C)(C)OC(=O)N1CCC(C2=NOC(C[C@H]3O[C@H](CO)[C@H](O)[C@H](n4cc(-c5cc(F)c(F)c(F)c5)nn4)[C@H]3OCC(F)F)C2)CC1 (mixture of isomers) [Example 2.32, tert-butyl 4-((RS)-5-(((2R,3R,4S,5R,6R)-3-(2,2-difluoroethoxy)-5-hydroxy-6-(hydroxymethyl)-4-(4-(3,4,5-trifluorophenyl)-1H-1,2,3-triazol-1-yl)tetrahydro-2H-pyran-2-yl)methyl)-4,5-dihydroisoxazol-3-yl)piperidine-1-carboxylate] | 350 | 2960
OC[C@H]1O[C@H](C[C@@H]2CC(C3CCCCC3)=NO2)[C@H](O)[C@@H](n2cc(-c3cc(F)c(F)c(F)c3)nn2)[C@H]1O [Ex 1.07] | 520 | 4900
(2R,3R,4S,5R,6R)-4-(4-(4-chloro-2,3-difluorophenyl)-1H-1,2,3-triazol-1-yl)-6-((3-(1-hydroxycyclobutyl)isoxazol-5-yl)methyl)-2-(hydroxymethyl)-5-methoxytetrahydro-2H-pyran-3-ol [Example 2.58] | 60 | 1460
CC(C)(C)OC(=O)N1CCC(O)(c2cc(C[C@H]3O[C@H](CO)[C@H](O)[C@H](n4cc(-c5cc(F)c(F)c(F)c5)nn4)[C@H]3O)no2)CC1 [Ex 1.61] | 36 | 620
CO[C@@H]1[C@@H](n2cc(-c3cc(F)c(F)c(F)c3)nn2)[C@@H](O)[C@@H](CO)O[C@@H]1Cc1cc(-c2nc(Br)cs2)on1 [Ex 1.127] | 300 | 9840

Next, values leading:

IC50 (human Gal-3 (hGal-3)) [nM] | IC50 (human Gal-1 (hGal-1)) [nM] | Compound
71 | 220 | CO[C@@H]1[C@@H](n2cc(-c3cc(F)c(F)c(F)c3)nn2)[C@@H](O)[C@@H](CO)O[C@@H]1Cc1cn(C2CCS(=O)(=NC3CCC(F)(F)CC3)CC2)nn1 (stereo partly drawn) [Example 4.33, 1-((4,4-difluorocyclohexyl)imino)-4-(4-(((2R,3R,4S,5R,6R)-5-hydroxy-6-(hydroxymethyl)-3-methoxy-4-(4-(3,4,5-trifluorophenyl)-1H-1,2,3-triazol-1-yl)tetrahydro-2H-pyran-2-yl)methyl)-1H-1,2,3-triazol-1-yl)hexahydro-1l6-thiopyran 1-oxide]
140 | 6740 | CO[C@@H]1[C@@H](n2cc(-c3cc(F)c(F)c(F)c3)nn2)[C@@H](O)[C@@H](CO)O[C@@H]1CC1CN(C2CCCCC2)C(=O)O1 (mixture of isomers) [Example 5.23, (RS)-3-cyclohexyl-5-(((2R,3R,4S,5R,6R)-5-hydroxy-6-(hydroxymethyl)-3-methoxy-4-(4-(3,4,5-trifluorophenyl)-1H-1,2,3-triazol-1-yl)tetrahydro-2H-pyran-2-yl)methyl)oxazolidin-2-one]
54 | 310 | CCN=S1(=O)CCC(n2cc(C[C@H]3O[C@H](CO)[C@H](O)[C@H](n4cc(-c5cc(F)c(F)c(F)c5)nn4)[C@H]3OC)nn2)CC1 (stereo partly drawn) [Example 4.24, 1-(ethylimino)-4-(4-(((2R,3R,4S,5R,6R)-5-hydroxy-6-(hydroxymethyl)-3-methoxy-4-(4-(3,4,5-trifluorophenyl)-1H-1,2,3-triazol-1-yl)tetrahydro-2H-pyran-2-yl)methyl)-1H-1,2,3-triazol-1-yl)hexahydro-1l6-thiopyran 1-oxide]
